Source: patent publication US20240269139A1, “COMPOUNDS FOR TARGETED PROTEIN DEGRADATION OF KINASES” (DANA-FARBER CANCER INSTITUTE, INC., priority 2020, published 2024)
Like-named read-outs stand apart in the source and are kept apart here.

Tests used:
Type in all cases: cell-based
[1] = molecular target: protein kinases (human kinome) (Homo sapiens, UniProt Q15418); details: for logFC: RPS6KA1 (Q15418-1), direction down
[2] = molecular target: protein kinases (human kinome) (Homo sapiens, UniProt O14874); details: BCKDK (O14874), experiment wp160, 1 hr
[3] = molecular target: protein kinases (human kinome) (Homo sapiens, UniProt Q9BYT3); details: STK33 (Q9BYT3-1)
[4] = molecular target: T1, protein kinases (human kinome) (Homo sapiens, UniProt Q6PHR2); details: for logFC ULK3: ULK3 (Q6PHR2-1)
T1 sequence (Q6PHR2 1-472): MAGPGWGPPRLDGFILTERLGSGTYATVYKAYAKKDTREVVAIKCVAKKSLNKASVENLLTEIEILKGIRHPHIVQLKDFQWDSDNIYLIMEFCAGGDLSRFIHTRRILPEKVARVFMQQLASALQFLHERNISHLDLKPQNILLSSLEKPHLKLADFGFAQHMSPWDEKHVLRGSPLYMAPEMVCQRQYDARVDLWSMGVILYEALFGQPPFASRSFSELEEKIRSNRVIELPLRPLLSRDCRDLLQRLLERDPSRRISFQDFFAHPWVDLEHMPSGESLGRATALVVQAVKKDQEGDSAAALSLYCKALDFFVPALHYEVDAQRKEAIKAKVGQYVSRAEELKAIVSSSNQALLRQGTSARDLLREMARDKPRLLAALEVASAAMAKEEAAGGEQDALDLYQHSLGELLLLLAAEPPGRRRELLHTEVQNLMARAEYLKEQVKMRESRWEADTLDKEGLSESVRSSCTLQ

protein kinases (human kinome) (Homo sapiens, UniProt Q9BYT3), sequence (Q9BYT3 whole entry): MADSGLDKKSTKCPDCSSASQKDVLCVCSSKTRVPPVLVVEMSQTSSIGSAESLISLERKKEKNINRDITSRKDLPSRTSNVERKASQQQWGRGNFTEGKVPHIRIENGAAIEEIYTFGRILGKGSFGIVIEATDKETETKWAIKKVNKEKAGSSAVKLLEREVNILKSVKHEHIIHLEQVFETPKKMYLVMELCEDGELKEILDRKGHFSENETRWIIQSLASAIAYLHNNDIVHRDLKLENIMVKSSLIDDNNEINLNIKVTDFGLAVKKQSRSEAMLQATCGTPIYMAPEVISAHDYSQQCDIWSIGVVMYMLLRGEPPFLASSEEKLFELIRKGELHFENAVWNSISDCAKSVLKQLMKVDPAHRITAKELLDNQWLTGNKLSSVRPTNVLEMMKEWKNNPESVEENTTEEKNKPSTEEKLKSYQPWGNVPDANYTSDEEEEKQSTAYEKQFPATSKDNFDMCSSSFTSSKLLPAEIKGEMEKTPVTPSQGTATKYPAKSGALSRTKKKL
protein kinases (human kinome) (Homo sapiens, UniProt Q15418), sequence (Q15418 whole entry): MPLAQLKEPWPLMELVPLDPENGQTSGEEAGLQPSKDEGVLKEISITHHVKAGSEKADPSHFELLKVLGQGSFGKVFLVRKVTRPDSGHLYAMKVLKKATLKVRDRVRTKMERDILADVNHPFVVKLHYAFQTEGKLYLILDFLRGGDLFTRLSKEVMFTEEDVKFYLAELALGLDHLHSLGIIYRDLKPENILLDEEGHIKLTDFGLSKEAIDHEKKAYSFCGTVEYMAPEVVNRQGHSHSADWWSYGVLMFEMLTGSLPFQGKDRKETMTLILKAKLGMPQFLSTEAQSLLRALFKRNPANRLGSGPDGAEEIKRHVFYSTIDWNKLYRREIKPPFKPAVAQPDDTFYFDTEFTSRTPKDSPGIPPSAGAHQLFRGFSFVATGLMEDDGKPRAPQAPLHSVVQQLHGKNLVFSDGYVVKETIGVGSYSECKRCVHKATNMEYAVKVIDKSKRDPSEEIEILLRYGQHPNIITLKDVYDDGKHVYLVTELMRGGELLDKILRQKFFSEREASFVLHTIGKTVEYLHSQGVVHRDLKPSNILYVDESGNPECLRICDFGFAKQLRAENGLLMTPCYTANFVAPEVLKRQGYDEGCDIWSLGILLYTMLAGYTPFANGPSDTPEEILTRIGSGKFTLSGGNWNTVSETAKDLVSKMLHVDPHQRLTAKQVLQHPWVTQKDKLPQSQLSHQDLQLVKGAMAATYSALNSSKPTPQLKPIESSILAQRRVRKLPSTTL

## CC(C)S(=O)(=O)c1ccccc1Nc1nc(Nc2ccc(N3CCN(CCOCCNC(=O)CNc4cccc5c4C(=O)N(C4CCC(=O)NC4=O)C5=O)CC3)cc2)ncc1Cl (stereo not shown) [SK.3.91]
[1]; Experiment wp172
  logFC RPS6KA1 (Q15418-1): −0.4561
[1]; experiment wp107
  logFC: −0.3671
  logFC RPS6KA1 (Q15418-1): −0.3671
[1]; experiment wp160, 4 hr
  logFC: −0.363
  logFC RPS6KA1 (Q15418-1): −0.363
[1]; experiment wp172
  logFC: −0.4561
[2]
  logFC: −0.8683
[2]; direction down
  logFC: −0.8683
[3]; experiment wp105
  logFC: −2.057
[3]; experiment wp105, direction down
  logFC: −2.057
[3]; experiment wp172
  logFC: −2.227
[3]; experiment wp172, direction down
  logFC: −2.227
[4]; Experiment wp160, 2 hr
  logFC ULK3 (Q6PHR2-1): −0.503
[4]; Experiment wp172
  logFC ULK3 (Q6PHR2-1): −0.8151
[4]; experiment wp016, 1 uM
  logFC ULK3: −1.03
  logFC ULK3 (Q6PHR2-1): −1.03
[4]; experiment wp103
  logFC ULK3: −0.9651
  logFC ULK3 (Q6PHR2-1): −0.9651
[4]; experiment wp105
  logFC ULK3: −0.837
  logFC ULK3 (Q6PHR2-1): −0.837
[4]; experiment wp133, 2 hr
  logFC ULK3: −0.5817
  logFC ULK3 (Q6PHR2-1): −0.5817
[4]; experiment wp133, 4 hr
  logFC ULK3: −1.062
  logFC ULK3 (Q6PHR2-1): −1.062
[4]; experiment wp160, 2 hr
  logFC ULK3: −0.503
[4]; experiment wp160, 4 hr
  logFC ULK3: −0.9689
  logFC ULK3 (Q6PHR2-1): −0.9689
[4]; experiment wp172
  logFC ULK3: −0.8151
